US10954269B2, “Anti-inflammatory tripeptides” (Dr. August Wolff Gmbh & Co. KG Arzneimittel, priority 2013, dated 2021)

Experiments:
primary murine T-cells = assay: Cytokine secretion on protein level in activated primary murine T-cells (13-plex FACS / Luminex, supernatant); type: cell-based, C57BL/6 mice; settings: substance 10^−9M
In short: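 T-cells from secondary lymphatic organs of naïve C57BL/6 mice, stimulated with PMA/Ionomycin or IFN-γ; supernatant cytokines measured by 13-plex FACS 48 h and 72 h after stimulation. In another run, PMA/Ionomycin-stimulated cells received compounds at 10^−7, 10^−9 and 10^−11 M, with IFN-γ, IL-17 and IL-10 measured by Luminex.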

primary human T-cells = assay: Cytokine secretion on protein level in activated primary human T-cells (13-plex FACS / Luminex, supernatant); type: cell-based; settings: for IL-1 cytokine concentration / IL-2 cytokine concentration / IL-4 cytokine concentration / IL-5 cytokine concentration / IL-6 cytokine concentration / IL-9 cytokine concentration / IL-10 cytokine concentration / IL-12p70 cytokine concentration / IL-13 cytokine concentration / IL-17 cytokine concentration / IL-22 cytokine concentration / TNF-α cytokine concentration / INF-α cytokine concentration: substance 10^−9M
In short: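 Stimulus: PMA/Ionomycin or IFN-γ, 48 h; cells: HaCaT or human peripheral-blood T-cells; tripeptide treatment; readout: supernatant cytokines via 13-plex FACS or Luminex, 48–72 h post-stimulation.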

[1] = primary murine T-cells stimulated with PBS
[2] = primary murine T-cells stimulated with PMA/Ionomycin
[3] = primary human T-cells stimulated with IFN-γ
[4] = primary human T-cells stimulated with PBS
[5] = primary human T-cells stimulated with PMA/Ionomycin

H-(L)-Nle-(L)-Pro-Aib-OH [Example 12] showed an IL-13 cytokine concentration (primary murine T-cells; [1]) of 0 pg/mL, an IL-17 cytokine concentration (primary murine T-cells; [1]) of 0 pg/mL and an IL-21 cytokine concentration (primary murine T-cells; [1]) of 69.64 pg/mL. The IL-22 cytokine concentration (primary murine T-cells; [1]) was 76.71 pg/mL, the IL-27 cytokine concentration (primary murine T-cells; [1]) was 71.85 pg/mL and the TNF-α cytokine concentration (primary murine T-cells; [1]) was 74.9 pg/mL. It also gave an IFN-γ cytokine concentration (primary murine T-cells; [2]) of 1298.02 pg/mL, an IL-1 cytokine concentration (primary murine T-cells; [2]) of 167.79 pg/mL and an IL-2 cytokine concentration (primary murine T-cells; [2]) of 98.57 pg/mL. It also gave an IL-4 cytokine concentration (primary murine T-cells; [2]) of 90.14 pg/mL, an IL-5 cytokine concentration (primary murine T-cells; [2]) of 242.24 pg/mL and an IL-6 cytokine concentration (primary murine T-cells; [2]) of 116.16 pg/mL. For the same substance, the IL-10 cytokine concentration (primary murine T-cells; [2]) was 1255.25 pg/mL, the IL-13 cytokine concentration (primary murine T-cells; [2]) was 0 pg/mL and the IL-17 cytokine concentration (primary murine T-cells; [2]) was 79.1 pg/mL. The IL-21 cytokine concentration (primary murine T-cells; [2]) was 0 pg/mL, the IL-22 cytokine concentration (primary murine T-cells; [2]) was 57.07 pg/mL and the IL-27 cytokine concentration (primary murine T-cells; [2]) was 80.09 pg/mL. The TNF-α cytokine concentration (primary murine T-cells; [2]) was 50.73 pg/mL, the “secretion / expression of pro-inflammatory cytokines (supernatant)” value (primary human T-cells; activated primary human T-cells) was “able to reduce” and the IL-1 cytokine concentration (primary human T-cells; [3]) was 44.77 pg/mL. It also gave an IL-2 cytokine concentration (primary human T-cells; [3]) of 0 pg/mL, an IL-4 cytokine concentration (primary human T-cells; [3]) of 0 pg/mL and an IL-5 cytokine concentration (primary human T-cells; [3]) of 0 pg/mL. It also gave an IL-6 cytokine concentration (primary human T-cells; [3]) of 60.44 pg/mL, an IL-9 cytokine concentration (primary human T-cells; [3]) of 7.67 pg/mL and an IL-10 cytokine concentration (primary human T-cells; [3]) of 84.25 pg/mL. For the same substance, the IL-12p70 cytokine concentration (primary human T-cells; [3]) was 0 pg/mL, the IL-13 cytokine concentration (primary human T-cells; [3]) was 0 pg/mL and the IL-17 cytokine concentration (primary human T-cells; [3]) was 0 pg/mL. The IL-22 cytokine concentration (primary human T-cells; [3]) was 0 pg/mL, the TNF-α cytokine concentration (primary human T-cells; [3]) was 41.38 pg/mL and the IL-1 cytokine concentration (primary human T-cells; [4]) was 0 pg/mL. It also gave an IL-2 cytokine concentration (primary human T-cells; [4]) of 0 pg/mL, an IL-4 cytokine concentration (primary human T-cells; [4]) of 0 pg/mL and an IL-5 cytokine concentration (primary human T-cells; [4]) of 0 pg/mL. For the same substance, the IL-6 cytokine concentration (primary human T-cells; [4]) was 91.86 pg/mL, the IL-9 cytokine concentration (primary human T-cells; [4]) was 0 pg/mL and the IL-10 cytokine concentration (primary human T-cells; [4]) was 189.65 pg/mL. For the same substance, the IL-12p70 cytokine concentration (primary human T-cells; [4]) was 0 pg/mL, the IL-13 cytokine concentration (primary human T-cells; [4]) was 0 pg/mL and the IL-17 cytokine concentration (primary human T-cells; [4]) was 104.68 pg/mL. For the same substance, the IL-22 cytokine concentration (primary human T-cells; [4]) was 0 pg/mL, the INF-α cytokine concentration (primary human T-cells; [4]) was 0 pg/mL and the TNF-α cytokine concentration (primary human T-cells; [4]) was 41.38 pg/mL. It also gave an IL-1 cytokine concentration (primary human T-cells; [5]) of 548.85 pg/mL, an IL-2 cytokine concentration (primary human T-cells; [5]) of 2751.28 pg/mL and an IL-4 cytokine concentration (primary human T-cells; [5]) of 73.38 pg/mL. It also gave an IL-5 cytokine concentration (primary human T-cells; [5]) of 328.24 pg/mL, an IL-6 cytokine concentration (primary human T-cells; [5]) of 1046.79 pg/mL and an IL-9 cytokine concentration (primary human T-cells; [5]) of 286.89 pg/mL. It also gave an IL-10 cytokine concentration (primary human T-cells; [5]) of 992.02 pg/mL, an IL-12p70 cytokine concentration (primary human T-cells; [5]) of 0 pg/mL and an IL-13 cytokine concentration (primary human T-cells; [5]) of 1026.08 pg/mL. It also gave an IL-17 cytokine concentration (primary human T-cells; [5]) of 1355.07 pg/mL, an IL-22 cytokine concentration (primary human T-cells; [5]) of 0 pg/mL and an INF-α cytokine concentration (primary human T-cells; [5]) of 9454.26 pg/mL. The TNF-α cytokine concentration (primary human T-cells; [5]) was 2985.72 pg/mL and the “activity (reduction of pro-inflammatory cytokines) relative to K(D)PT” value (primary human T-cells; second experiment, all three cellular models) was “comparable”.
